Assay results: patent US20260070945A1, “MACROCYCLIC IMMUNOMODULATORS” (Bristol-Myers Squibb Company, priority 2022, published 2026)
Where a SMILES comes first, the peptide text is derived from it. Bridges are numbered along the chain shown (N, C = ends). [ ]: non-standard residue; d: D form. The star is where a group is joined. ξ: configuration not given here. Phe(4-CONH2) = NC(=O)c1ccc(C[C@H](N)C(=O)O)cc1; Phe(4-COOH) = N[C@@H](Cc1ccc(C(=O)O)cc1)C(=O)O; Bip = N[C@@H](Cc1ccc(-c2ccccc2)cc1)C(=O)O; Phe(3-Me) = Cc1cccc(C[C@H](N)C(=O)O)c1; Val(3-OH) = CC(C)(O)[C@H](N)C(=O)O; Cha = N[C@@H](CC1CCCCC1)C(=O)O; Cit = NC(=O)NCCC[C@H](N)C(=O)O; Thr(3ξ) = CC(O)[C@H](N)C(=O)O; Carboxymethyl = O=C(O)C*; NMeA = CN[C@@H](C)C(=O)O; Aun = NCCCCCCCCCCC(=O)O; Dab = NCC[C@H](N)C(=O)O; Dap = NC[C@H](N)C(=O)O; AEEA = NCCOCCOCC(=O)O

Molecular target: T1, PD-1/PD-L1 interaction (PE-labeled human PD-L1-Ig binding to Jurkat cell line over-expressing human PD-1) (Homo sapiens, UniProt Q15116)
T1 construct: expressed in transfected cells; host or cells: Jurkat
T1 sequence (Q15116 25-288): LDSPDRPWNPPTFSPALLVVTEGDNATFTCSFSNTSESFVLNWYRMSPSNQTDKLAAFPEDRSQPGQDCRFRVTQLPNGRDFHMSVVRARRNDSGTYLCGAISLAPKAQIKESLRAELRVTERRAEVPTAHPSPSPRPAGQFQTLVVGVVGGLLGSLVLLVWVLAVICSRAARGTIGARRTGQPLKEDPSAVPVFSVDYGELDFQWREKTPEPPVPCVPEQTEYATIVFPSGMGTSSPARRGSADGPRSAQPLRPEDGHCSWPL
Assay: Jurkat-PD-1 Cell Binding High-Content Screening Assay (CBA)
Details: PE-labeled PD-L1-Ig 20 nM final, Jurkat-hPD-1 cells; read-out: Jurkat HPD1 PDL1 IC50
Outline: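 Compound is added first to the PD-1-expressing Jurkat cells and held 2 h at 37 °C in serum-containing DMEM. The fluorescent PD-L1 fusion follows at 20 nM final for 1 h. Fixed, Hoechst-stained cells are then imaged for bound label.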

How did the IC50 turn out when Cc1cccc(C[C@@H]2NC(=O)[C@H](CC(=O)O)NC(=O)[C@H](Cc3ccc(OCC(=O)O)cc3)NC(=O)[C@H](CN)NC(=O)CSC[C@@H](C(=O)N[C@@H](CCN)C(=O)NCCCCCCCCCCC(=O)O)NC(=O)[C@H](CO)NC(=O)[C@H](Cc3cnc[nH]3)NC(=O)[C@H](CC3CCCCC3)NC(=O)[C@H](CCN)NC(=O)[C@@H](CC(C)C)NC(=O)[C@H](C)N(C)C(=O)[C@H](Cc3ccc(OCC(=O)O)cc3)NC(=O)[C@H](Cc3ccc(-c4ccccc4)cc3)NC(=O)[C@H](Cc3ccc(OCC(=O)O)cc3)NC2=O)c1 [Example 2427] ({CH2CO}-[Dap]Y(Carboxymethyl)D[Phe(3-Me)]Y(Carboxymethyl)[Bip]Y(Carboxymethyl)[NMeA][dL][Dab][Cha]HSC[Dab][Aun]-OH; thioether N-14) was run?
The IC50 was 30.7 nM.

CC(C)C[C@H]1NC(=O)[C@H](C)N(C)C(=O)[C@H](Cc2ccc(OCC(=O)O)cc2)NC(=O)[C@H](Cc2ccc(-c3ccccc3)cc2)NC(=O)[C@H](Cc2ccc(OCC(=O)O)cc2)NC(=O)[C@H](Cc2c[nH]c3ccccc23)NC(=O)[C@H](CC(=O)O)NC(=O)[C@H](Cc2ccc(OCC(=O)O)cc2)NC(=O)[C@H](C(C)O)NC(=O)CSC[C@@H](C(=O)N[C@@H](CCN)C(=O)NCCCCCCCCCCC(=O)O)NC(=O)[C@H](CO)NC(=O)[C@H](Cc2cnc[nH]2)NC(=O)[C@H](CC2CCCCC2)NC(=O)[C@H](CCN)NC1=O (stereo partly drawn) [Example 2428] ({CH2CO}-[Thr(3ξ)]Y(Carboxymethyl)DWY(Carboxymethyl)[Bip]Y(Carboxymethyl)[NMeA][dL][Dab][Cha]HSC[Dab][Aun]-OH; thioether N-14) was tested. Which IC50 did it give?
Its IC50 is 259 nM.

With CC(C)C[C@H]1NC(=O)[C@H](C)N(C)C(=O)[C@H](Cc2ccc(C(N)=O)cc2)NC(=O)[C@H](Cc2ccc(-c3ccccc3)cc2)NC(=O)[C@H](Cc2ccc(C(N)=O)cc2)NC(=O)[C@H](Cc2c[nH]c3ccccc23)NC(=O)[C@H](CC(=O)O)NC(=O)[C@H](Cc2ccc(OCC(=O)O)cc2)NC(=O)[C@H](C(C)O)NC(=O)CSC[C@@H](C(=O)N[C@@H](CCN)C(=O)NCCCCCCCCCCC(=O)O)NC(=O)[C@H](CO)NC(=O)[C@H](Cc2cnc[nH]2)NC(=O)[C@H](CC2CCCCC2)NC(=O)[C@H](CCN)NC1=O (stereo partly drawn) [Example 2429] ({CH2CO}-[Thr(3ξ)]Y(Carboxymethyl)DW[Phe(4-CONH2)][Bip][Phe(4-CONH2)][NMeA][dL][Dab][Cha]HSC[Dab][Aun]-OH; thioether N-14) as the molecule, how does the IC50 read?
Its IC50 is 217 nM.

For Cc1cccc(C[C@@H]2NC(=O)[C@H](CC(=O)O)NC(=O)[C@H](Cc3ccc(OCC(=O)O)cc3)NC(=O)[C@H](C(C)O)NC(=O)CSC[C@@H](C(=O)N[C@@H](CCN)C(=O)NCCCCCCCCCCC(=O)O)NC(=O)[C@H](CO)NC(=O)[C@H](C(C)(C)O)NC(=O)[C@H](CC3CCCCC3)NC(=O)[C@H](CCN)NC(=O)[C@@H](CC(C)C)NC(=O)[C@H](C)N(C)C(=O)[C@H](Cc3ccc(OCC(=O)O)cc3)NC(=O)[C@H](Cc3ccc(-c4ccccc4)cc3)NC(=O)[C@H](Cc3ccc(C(=O)O)cc3)NC2=O)c1 (stereo partly drawn) [Example 2430] ({CH2CO}-[Thr(3ξ)]Y(Carboxymethyl)D[Phe(3-Me)][Phe(4-COOH)][Bip]Y(Carboxymethyl)[NMeA][dL][Dab][Cha][Val(3-OH)]SC[Dab][Aun]-OH; thioether N-14), which IC50 is on record?
The IC50 was 34.2 nM.

How did the IC50 turn out when Cc1cccc(C[C@@H]2NC(=O)[C@H](CC(=O)O)NC(=O)[C@H](Cc3ccc(OCC(=O)O)cc3)NC(=O)[C@H](C(C)O)NC(=O)CSC[C@@H](C(=O)NCCOCCOCC(=O)NCCCCCCCCCCC(=O)O)NC(=O)[C@H](Cc3cnc[nH]3)NC(=O)[C@H](C(C)(C)O)NC(=O)[C@H](CC3CCCCC3)NC(=O)[C@H](CCN)NC(=O)[C@@H](CC(C)C)NC(=O)[C@H](C)N(C)C(=O)[C@H](Cc3ccc(OCC(=O)O)cc3)NC(=O)[C@H](Cc3ccc(-c4ccccc4)cc3)NC(=O)[C@H](Cc3ccc(C(=O)O)cc3)NC2=O)c1 (stereo partly drawn) [Example 2431] ({CH2CO}-[Thr(3ξ)]Y(Carboxymethyl)D[Phe(3-Me)][Phe(4-COOH)][Bip]Y(Carboxymethyl)[NMeA][dL][Dab][Cha][Val(3-OH)]HC[AEEA][Aun]-OH; thioether N-14) was run?
The IC50 was 140 nM.

CC(C)C[C@@H]1NC(=O)[C@H](Cc2c[nH]c3ccccc23)NC(=O)[C@H](CC(=O)O)NC(=O)[C@H](Cc2ccc(C(=O)O)cc2)NC(=O)[C@H](Cc2ccc(OCC(=O)O)cc2)NC(=O)CSC[C@@H](C(=O)NCCOCCOCC(=O)NCCCCCCCCCCC(=O)O)NC(=O)[C@H](CO)NC(=O)[C@H](C(C)O)NC(=O)[C@H](CC2CCCCC2)NC(=O)[C@H](CCN)NC(=O)[C@@H](CC(C)C)NC(=O)[C@H](C)N(C)C(=O)[C@H](C(C)C)NC(=O)[C@H](Cc2ccc(-c3ccccc3)cc2)NC1=O (stereo partly drawn) [Example 2433] ({CH2CO}-Y(Carboxymethyl)[Phe(4-COOH)]DWL[Bip]V[NMeA][dL][Dab][Cha][Thr(3ξ)]SC[AEEA][Aun]-OH; thioether N-14) was tested. Which IC50 did it give?
The IC50 was 35.2 nM.

With CC(C)C[C@@H]1NC(=O)[C@H](Cc2c[nH]c3ccccc23)NC(=O)[C@H](CC(=O)O)NC(=O)[C@H](Cc2ccc(C(=O)O)cc2)NC(=O)[C@H](Cc2ccc(OCC(=O)O)cc2)NC(=O)CSC[C@@H](C(=O)NCCOCCOCC(=O)NCCCCCCCCCCC(=O)O)NC(=O)[C@H](Cc2cnc[nH]2)NC(=O)[C@H](C(C)O)NC(=O)[C@H](CC2CCCCC2)NC(=O)[C@H](CCN)NC(=O)[C@@H](CC(C)C)NC(=O)[C@H](C)N(C)C(=O)[C@H](C(C)C)NC(=O)[C@H](Cc2ccc(-c3ccccc3)cc2)NC1=O (stereo partly drawn) [Example 2435] ({CH2CO}-Y(Carboxymethyl)[Phe(4-COOH)]DWL[Bip]V[NMeA][dL][Dab][Cha][Thr(3ξ)]HC[AEEA][Aun]-OH; thioether N-14) as the molecule, how does the IC50 read?
Its IC50 is 25.5 nM.

Which IC50 does the source give for CC(C)C[C@@H]1NC(=O)[C@H](Cc2c[nH]c3ccccc23)NC(=O)[C@H](CC(=O)O)NC(=O)[C@H](Cc2ccc(OCC(=O)O)cc2)NC(=O)[C@H](Cc2ccc(OCC(=O)O)cc2)NC(=O)CSC[C@@H](C(=O)NCCOCCOCC(=O)NCCCCCCCCCCC(=O)O)NC(=O)[C@H](Cc2cnc[nH]2)NC(=O)[C@H](CO)NC(=O)[C@H](CC2CCCCC2)NC(=O)[C@H](CCN)NC(=O)[C@@H](CC(C)C)NC(=O)[C@H](C)N(C)C(=O)[C@H](C(C)C)NC(=O)[C@H](Cc2ccc(-c3ccccc3)cc2)NC1=O [Example 2436] ({CH2CO}-Y(Carboxymethyl)Y(Carboxymethyl)DWL[Bip]V[NMeA][dL][Dab][Cha]SHC[AEEA][Aun]-OH; thioether N-14) here?
Its IC50 is 31.4 nM.

How did the IC50 turn out when CC(C)C[C@@H]1NC(=O)[C@H](Cc2c[nH]c3ccccc23)NC(=O)[C@H](CC(=O)O)NC(=O)[C@H](Cc2ccc(OCC(=O)O)cc2)NC(=O)[C@H](C(C)O)NC(=O)CSC[C@@H](C(=O)NCCOCCOCC(=O)NCCCCCCCCCCC(=O)O)NC(=O)[C@H](C(C)O)NC(=O)[C@H](C(C)C)NC(=O)[C@H](CC2CCCCC2)NC(=O)[C@H](CCN)NC(=O)[C@@H](CC(C)C)NC(=O)[C@H](C)N(C)C(=O)[C@H](CCCNC(N)=O)NC(=O)[C@H](Cc2ccc(-c3ccccc3)cc2)NC1=O (stereo partly drawn) [Example 2437] ({CH2CO}-[Thr(3ξ)]Y(Carboxymethyl)DWL[Bip][Cit][NMeA][dL][Dab][Cha]V[Thr(3ξ)]C[AEEA][Aun]-OH; thioether N-14) was run?
Its IC50 is 34.9 nM.

With CC(=O)NCCCC[C@@H]1NC(=O)[C@H](Cc2ccc(-c3ccccc3)cc2)NC(=O)[C@H](CC(C)C)NC(=O)[C@H](Cc2c[nH]c3ccccc23)NC(=O)[C@H](CC(=O)O)NC(=O)[C@H](Cc2ccc(OCC(=O)O)cc2)NC(=O)[C@H](Cc2ccc(OCC(=O)O)cc2)NC(=O)CSC[C@@H](C(=O)NCCOCCOCC(=O)NCCCCCCCCCCC(=O)O)NC(=O)[C@H](CO)NC(=O)[C@H](C(C)C)NC(=O)[C@H](CC2CCCCC2)NC(=O)[C@H](CCN)NC(=O)[C@@H](CC(C)C)NC(=O)[C@H](C)N(C)C1=O [Example 2438] ({CH2CO}-Y(Carboxymethyl)Y(Carboxymethyl)DWL[Bip]K(Ac)[NMeA][dL][Dab][Cha]VSC[AEEA][Aun]-OH; thioether N-14) as the molecule, how does the IC50 read?
The IC50 was 16.8 nM.

For CC(C)C[C@@H]1NC(=O)[C@H](Cc2c[nH]c3ccccc23)NC(=O)[C@H](CC(=O)O)NC(=O)[C@H](Cc2ccc(C(=O)O)cc2)NC(=O)[C@H](Cc2ccc(OCC(=O)O)cc2)NC(=O)CSC[C@@H](C(=O)NCCOCCOCC(=O)NCCCCCCCCCCC(=O)O)NC(=O)[C@H](Cc2cnc[nH]2)NC(=O)[C@H](C(C)C)NC(=O)[C@H](CC2CCCCC2)NC(=O)[C@H](CCN)NC(=O)[C@@H](CC(C)C)NC(=O)[C@H](C)N(C)C(=O)[C@H](C(C)C)NC(=O)[C@H](Cc2ccc(-c3ccccc3)cc2)NC1=O [Example 2441] ({CH2CO}-Y(Carboxymethyl)[Phe(4-COOH)]DWL[Bip]V[NMeA][dL][Dab][Cha]VHC[AEEA][Aun]-OH; thioether N-14), which IC50 is on record?
The IC50 was 33.8 nM.

Which IC50 does the source give for CC(C)C[C@@H]1NC(=O)[C@H](Cc2c[nH]c3ccccc23)NC(=O)[C@H](CC(=O)O)NC(=O)[C@H](Cc2ccc(OCC(=O)O)cc2)NC(=O)[C@H](Cc2ccc(OCC(=O)O)cc2)NC(=O)CSC[C@@H](C(=O)NCCOCCOCC(=O)NCCCCCCCCCCC(=O)O)NC(=O)[C@H](Cc2c[nH]cn2)NC(=O)[C@H](C(C)C)NC(=O)[C@H](CC2CCCCC2)NC(=O)[C@H](CCN)NC(=O)[C@@H](CC(C)C)NC(=O)[C@H](C)N(C)C(=O)[C@H](C(C)C)NC(=O)[C@H](Cc2ccc(-c3ccccc3)cc2)NC1=O [Example 2442] ({CH2CO}-Y(Carboxymethyl)Y(Carboxymethyl)DWL[Bip]V[NMeA][dL][Dab][Cha]VHC[AEEA][Aun]-OH; thioether N-14) here?
Its IC50 is 37.9 nM.

With CC(C)C[C@@H]1NC(=O)[C@H](Cc2c[nH]c3ccccc23)NC(=O)[C@H](CC(=O)O)NC(=O)[C@H](Cc2ccc(C(=O)O)cc2)NC(=O)[C@H](Cc2ccc(OCC(=O)O)cc2)NC(=O)CSC[C@@H](C(=O)NCCOCCOCC(=O)NCCCCCCCCCCC(=O)O)NC(=O)[C@H](CO)NC(=O)[C@H](C(C)(C)O)NC(=O)[C@H](CC2CCCCC2)NC(=O)[C@H](CCN)NC(=O)[C@@H](CC(C)C)NC(=O)[C@H](C)N(C)C(=O)[C@H](C(C)C)NC(=O)[C@H](Cc2ccc(-c3ccccc3)cc2)NC1=O [Example 2443] ({CH2CO}-Y(Carboxymethyl)[Phe(4-COOH)]DWL[Bip]V[NMeA][dL][Dab][Cha][Val(3-OH)]SC[AEEA][Aun]-OH; thioether N-14) as the molecule, how does the IC50 read?
The IC50 was 23.6 nM.
